Reference: patent US6355799B1, “Substituted benzene compounds, process for their preparation, and herbicidal and defoliant compositions containing them” (ISK Americas Incorporated, priority 1997, dated 2002)

Key:
Format in all cases: in vivo
[1] = tested on: redroot pigweed (Amaranthus retroflexus, AMARE); assay: Pre-emerge test, greenhouse herbicide activity screening; conditions: rated 14 days after application, 0 = no damage, 100 = complete death
Procedure, shortened: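 Plants grown in 10 cm pots of sandy loam mix received acetone-dissolved compounds through a moving flat-fan nozzle. Doses ranged from 15 to 1000 g ai/ha. Pre-emerge pots were seeded one day earlier, post-emerge pots 8–21 days earlier. Fourteen days on, each pot was graded 0–100 for damage.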

[2] = tested on: barnyardgrass (Echinochloa crus-galli, ECHCG); assay: as above; conditions: rated 14 days after application, 0 = no damage, 100 = complete death
Procedure, shortened: (§1)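 Visual ratings on a 0-100 scale (0 no damage, 100 all plants dead) were taken at 14 days after treatment. Rates of 15-1000 g ai/ha in acetone, 187 l/ha, were sprayed onto soil one day after planting (pre-emerge) or onto 2-3 leaf plants with 0.25% v/v surfactant (post-emerge).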

[3] = tested on: green foxtail (Setaria viridis, SETVI); assay: as above; conditions: rated 14 days after application, 0 = no damage, 100 = complete death
Procedure, shortened: as §1

[4] = tested on: ivyleaf morningglory (Ipomoea hederacea, IPOHE); assay: as above; conditions: rated 14 days after application, 0 = no damage, 100 = complete death
Procedure, shortened: as §1

[5] = tested on: johnsongrass (Sorghum halepense, SORHA); assay: as above; conditions: rated 14 days after application, 0 = no damage, 100 = complete death
Procedure, shortened: as §1

[6] = tested on: lambsquarters (Chenopodium album, CHEAL); assay: as above; conditions: rated 14 days after application, 0 = no damage, 100 = complete death
Procedure, shortened: as §1

[7] = tested on: large crabgrass (Digitaria sanguinalis, DIGSA); assay: as above; conditions: rated 14 days after application, 0 = no damage, 100 = complete death
Procedure, shortened: as §1

[8] = tested on: sicklepod (Cassia obtusifolia, CASOB); assay: as above; conditions: rated 14 days after application, 0 = no damage, 100 = complete death
Procedure, shortened: as §1

[9] = tested on: velvetleaf (Abutilon theophrasti, ABUTH); assay: as above; conditions: rated 14 days after application, 0 = no damage, 100 = complete death
Procedure, shortened: as §1

[10] = tested on: field corn (Zea mays L., var. Dekalb 535, CORN); assay: Pre-emerge test, crop safety; conditions: rated 14 days after application, 0 = no damage, 100 = complete death
Procedure, shortened: as §1

[11] = tested on: upland rice (Oryza sp., var. Tebonnet, RICE); assay: Pre-emerge test, crop safety; conditions: rated 14 days after application, 0 = no damage, 100 = complete death
Procedure, shortened: as §1

[12] = tested on: barnyardgrass (Echinochloa crus-galli, ECHCG); assay: Post-emerge test, greenhouse herbicide activity screening; conditions: post-emerge, 14 days after application, rating scale 0-100
Procedure, shortened: (§2)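 Compounds in acetone were track-sprayed at 15–1000 g ai/ha: pre-emergence onto soil sown the previous day, then top-watered to incorporate and later bottom-watered; post-emergence onto 2–3 leaf plants with 0.25% v/v surfactant, bottom-watered only. Ratings on a 0–100 phytotoxicity scale were taken at day 14.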

[13] = tested on: green foxtail (Setaria viridis, SETVI); assay: as above; conditions: post-emerge, 14 days after application, rating scale 0-100
Procedure, shortened: as §2

[14] = tested on: ivyleaf morningglory (Ipomoea hederacea, IPOHE); assay: as above; conditions: post-emerge, 14 days after application, rating scale 0-100
Procedure, shortened: as §2

[15] = tested on: johnsongrass (Sorghum halepense, SORHA); assay: as above; conditions: post-emerge, 14 days after application, rating scale 0-100
Procedure, shortened: as §2

[16] = tested on: lambsquarters (Chenopodium album, CHEAL); assay: as above; conditions: post-emerge, 14 days after application, rating scale 0-100
Procedure, shortened: as §2

[17] = tested on: large crabgrass (Digitaria sanguinalis, DIGSA); assay: as above; conditions: post-emerge, 14 days after application, rating scale 0-100
Procedure, shortened: as §2

[18] = tested on: redroot pigweed (Amaranthus retroflexus, AMARE); assay: as above; conditions: post-emerge, 14 days after application, rating scale 0-100
Procedure, shortened: as §2

[19] = tested on: sicklepod (Cassia obtusifolia, CASOB); assay: as above; conditions: post-emerge, 14 days after application, rating scale 0-100
Procedure, shortened: as §2

[20] = tested on: velvetleaf (Abutilon theophrasti, ABUTH); assay: as above; conditions: post-emerge, 14 days after application, rating scale 0-100
Procedure, shortened: as §2

[21] = tested on: field corn (Zea mays L., var. Dekalb 535, CORN); assay: Post-emerge test, crop safety; conditions: post-emerge, 14 days after application, rating scale 0-100
Procedure, shortened: as §1

[22] = tested on: upland rice (Oryza sp., var. Tebonnet, RICE); assay: Post-emerge test, crop safety; conditions: post-emerge, 14 days after application, rating scale 0-100
Procedure, shortened: as §1

## COc1c(Cl)cc(F)c(-n2c(=O)cc(C(F)(F)F)n(C)c2=O)c1N(C(=O)COc1ccccc1)C(=O)COc1ccccc1 [2-120]
[1]; 63 g ai/ha
  Pre-emerge Herbicidal Activity, phytotoxicity rating (0-100), AMARE: 90
[1]; 250 g ai/ha
  Pre-emerge Herbicidal Activity, phytotoxicity rating (0-100), AMARE: 100
[2]; 63 g ai/ha
  Pre-emerge Herbicidal Activity, phytotoxicity rating (0-100), ECHCG: 60
[2]; 250 g ai/ha
  Pre-emerge Herbicidal Activity, phytotoxicity rating (0-100), ECHCG: 90
[3]; 63 g ai/ha
  Pre-emerge Herbicidal Activity, phytotoxicity rating (0-100), SETVI: 70
[3]; 250 g ai/ha
  Pre-emerge Herbicidal Activity, phytotoxicity rating (0-100), SETVI: 100
[4]; 63 g ai/ha
  Pre-emerge Herbicidal Activity, phytotoxicity rating (0-100), IPOHE: 50
[4]; 250 g ai/ha
  Pre-emerge Herbicidal Activity, phytotoxicity rating (0-100), IPOHE: 80
[5]; 63 g ai/ha
  Pre-emerge Herbicidal Activity, phytotoxicity rating (0-100), SORHA: 50
[5]; 250 g ai/ha
  Pre-emerge Herbicidal Activity, phytotoxicity rating (0-100), SORHA: 95
[6]; 63 g ai/ha
  Pre-emerge Herbicidal Activity, phytotoxicity rating (0-100), CHEAL: 100
[6]; 250 g ai/ha
  Pre-emerge Herbicidal Activity, phytotoxicity rating (0-100), CHEAL: 100
[7]; 63 g ai/ha
  Pre-emerge Herbicidal Activity, phytotoxicity rating (0-100), DIGSA: 80
[7]; 250 g ai/ha
  Pre-emerge Herbicidal Activity, phytotoxicity rating (0-100), DIGSA: 100
[8]; 63 g ai/ha
  Pre-emerge Herbicidal Activity, phytotoxicity rating (0-100), CASOB: 40
[8]; 250 g ai/ha
  Pre-emerge Herbicidal Activity, phytotoxicity rating (0-100), CASOB: 70
[9]; 63 g ai/ha
  Pre-emerge Herbicidal Activity, phytotoxicity rating (0-100), ABUTH: 100
[9]; 250 g ai/ha
  Pre-emerge Herbicidal Activity, phytotoxicity rating (0-100), ABUTH: 100
[10]; 63 g ai/ha
  Pre-emerge phytotoxicity rating (0-100), crop damage, CORN: 0
[10]; 250 g ai/ha
  Pre-emerge phytotoxicity rating (0-100), crop damage, CORN: 90
[11]; 63 g ai/ha
  Pre-emerge phytotoxicity rating (0-100), crop damage, RICE: 80
[11]; 250 g ai/ha
  Pre-emerge phytotoxicity rating (0-100), crop damage, RICE: 95
[12]; 63 g ai/ha
  phytotoxicity rating ECHCG: 40
[12]; 250 g ai/ha
  phytotoxicity rating ECHCG: 30
[13]; 63 g ai/ha
  phytotoxicity rating SETVI: 20
[13]; 250 g ai/ha
  phytotoxicity rating SETVI: 60
[14]; 63 g ai/ha
  phytotoxicity rating IPOHE: 100
[14]; 250 g ai/ha
  phytotoxicity rating IPOHE: 100
[15]; 63 g ai/ha
  phytotoxicity rating SORHA: 40
[15]; 250 g ai/ha
  phytotoxicity rating SORHA: 50
[16]; 63 g ai/ha
  phytotoxicity rating CHEAL: 80
[16]; 250 g ai/ha
  phytotoxicity rating CHEAL: 80
[17]; 63 g ai/ha
  phytotoxicity rating DIGSA: 10
[17]; 250 g ai/ha
  phytotoxicity rating DIGSA: 60
[18]; 63 g ai/ha
  phytotoxicity rating AMARE: 90
[18]; 250 g ai/ha
  phytotoxicity rating AMARE: 100
[19]; 63 g ai/ha
  phytotoxicity rating CASOB: 40
[19]; 250 g ai/ha
  phytotoxicity rating CASOB: 30
[20]; 63 g ai/ha
  phytotoxicity rating ABUTH: 100
[20]; 250 g ai/ha
  phytotoxicity rating ABUTH: 100
[21]; 63 g ai/ha
  phytotoxicity rating CORN: 50
[21]; 250 g ai/ha
  phytotoxicity rating CORN: 70
[22]; 63 g ai/ha
  phytotoxicity rating RICE: 50
[22]; 250 g ai/ha
  phytotoxicity rating RICE: 90

## COc1c(Cl)cc(F)c(-n2c(=O)cc(C(F)(F)F)n(C)c2=O)c1NC(=O)C(=O)c1ccccc1 [2-121]
[1]; 63 g ai/ha
  Pre-emerge Herbicidal Activity, phytotoxicity rating (0-100), AMARE: 100
[1]; 250 g ai/ha
  Pre-emerge Herbicidal Activity, phytotoxicity rating (0-100), AMARE: 100
[2]; 63 g ai/ha
  Pre-emerge Herbicidal Activity, phytotoxicity rating (0-100), ECHCG: 0
[2]; 250 g ai/ha
  Pre-emerge Herbicidal Activity, phytotoxicity rating (0-100), ECHCG: 0
[3]; 63 g ai/ha
  Pre-emerge Herbicidal Activity, phytotoxicity rating (0-100), SETVI: 0
[3]; 250 g ai/ha
  Pre-emerge Herbicidal Activity, phytotoxicity rating (0-100), SETVI: 60
[4]; 63 g ai/ha
  Pre-emerge Herbicidal Activity, phytotoxicity rating (0-100), IPOHE: 0
[4]; 250 g ai/ha
  Pre-emerge Herbicidal Activity, phytotoxicity rating (0-100), IPOHE: 90
[5]; 63 g ai/ha
  Pre-emerge Herbicidal Activity, phytotoxicity rating (0-100), SORHA: 0
[5]; 250 g ai/ha
  Pre-emerge Herbicidal Activity, phytotoxicity rating (0-100), SORHA: 0
[6]; 63 g ai/ha
  Pre-emerge Herbicidal Activity, phytotoxicity rating (0-100), CHEAL: 80
[6]; 250 g ai/ha
  Pre-emerge Herbicidal Activity, phytotoxicity rating (0-100), CHEAL: 100
[7]; 63 g ai/ha
  Pre-emerge Herbicidal Activity, phytotoxicity rating (0-100), DIGSA: 0
[7]; 250 g ai/ha
  Pre-emerge Herbicidal Activity, phytotoxicity rating (0-100), DIGSA: 30
[8]; 63 g ai/ha
  Pre-emerge Herbicidal Activity, phytotoxicity rating (0-100), CASOB: 0
[8]; 250 g ai/ha
  Pre-emerge Herbicidal Activity, phytotoxicity rating (0-100), CASOB: 50
[9]; 63 g ai/ha
  Pre-emerge Herbicidal Activity, phytotoxicity rating (0-100), ABUTH: 100
[9]; 250 g ai/ha
  Pre-emerge Herbicidal Activity, phytotoxicity rating (0-100), ABUTH: 100
[10]; 63 g ai/ha
  Pre-emerge phytotoxicity rating (0-100), crop damage, CORN: 0
[10]; 250 g ai/ha
  Pre-emerge phytotoxicity rating (0-100), crop damage, CORN: 10
[11]; 63 g ai/ha
  Pre-emerge phytotoxicity rating (0-100), crop damage, RICE: 0
[11]; 250 g ai/ha
  Pre-emerge phytotoxicity rating (0-100), crop damage, RICE: 0
[12]; 63 g ai/ha
  phytotoxicity rating ECHCG: 0
[12]; 250 g ai/ha
  phytotoxicity rating ECHCG: 0
[13]; 63 g ai/ha
  phytotoxicity rating SETVI: 0
[13]; 250 g ai/ha
  phytotoxicity rating SETVI: 20
[14]; 63 g ai/ha
  phytotoxicity rating IPOHE: 100
[14]; 250 g ai/ha
  phytotoxicity rating IPOHE: 100
[15]; 63 g ai/ha
  phytotoxicity rating SORHA: 0
[15]; 250 g ai/ha
  phytotoxicity rating SORHA: 10
[16]; 63 g ai/ha
  phytotoxicity rating CHEAL: 60
[16]; 250 g ai/ha
  phytotoxicity rating CHEAL: 80
[17]; 63 g ai/ha
  phytotoxicity rating DIGSA: 0
[17]; 250 g ai/ha
  phytotoxicity rating DIGSA: 10
[18]; 63 g ai/ha
  phytotoxicity rating AMARE: 90
[18]; 250 g ai/ha
  phytotoxicity rating AMARE: 100
[19]; 63 g ai/ha
  phytotoxicity rating CASOB: 10
[19]; 250 g ai/ha
  phytotoxicity rating CASOB: 60
[20]; 63 g ai/ha
  phytotoxicity rating ABUTH: 70
[20]; 250 g ai/ha
  phytotoxicity rating ABUTH: 100
[21]; 63 g ai/ha
  phytotoxicity rating CORN: 10
[21]; 250 g ai/ha
  phytotoxicity rating CORN: 20
[22]; 63 g ai/ha
  phytotoxicity rating RICE: 15
[22]; 250 g ai/ha
  phytotoxicity rating RICE: 25
